The data set concerns ligated saphenous vein (LSV). Put plainly: In vivo ligated saphenous vein damage: histopathological examination (H&E). Particulars: control (non-ligated) mice treated for 7 days; also no signs of tissue inflammation. Also on record: species or system NMRI mice.

Turning to `CCC(C)(C)C(=O)O[C@H]1C[C@@H](C)C=C2C=C[C@H](C)[C@H](CC[C@@H]3C[C@@H](O)CC(=O)O3)[C@H]21` [Simvastatin], the “changes in the lumen of the vessel” value is recorded as “no significant changes”.
